Data taken from patent publication US12459974B2, “Bicyclic peptide ligands specific for Nectin-4” (priority 2018, dated 2025).
Like-named read-outs stand apart in the source and are kept apart here. *1 amine or outer side, *2 acyl side, *3 side chain or, on linkers, in order; H or OH if unused. Where a SMILES comes first, the peptide text is derived from it. Bridges are numbered along the chain shown (N, C = ends). Roman numbers before positions name the chains, in order. [ ]: non-standard residue; d: D form. The star is where a group is joined. ξ: configuration not given here. TATA = O=C(CC[*:1])N1CN(C(=O)CC[*:2])CN(C(=O)CC[*:3])C1; Dolaproine = CO[C@@H]([C@@H]1CCCN1)[C@@H](C)C(=O)O; X1 = CC[C@H](C)C(C(CC(=O)[*:2])OC)N(C)[*:1]; 1Nal = N[C@@H](Cc1cccc2ccccc12)C(=O)O; X3 = O=C(CCCC(=O)[*:2])NCCC(=O)[*:1]; PABC = O=C(OCc1ccc(N[*:1])cc1)[*:2]; Hyp = O=C(O)[C@@H]1C[C@@H](O)CN1; hArg = N=C(N)NCCCC[C@H](N)C(=O)O; Cit = NC(=O)NCCC[C@H](N)C(=O)O; X2 = CC(N*)[C@@H](O)c1ccccc1; ξNMeV = CNC(C(=O)O)C(C)C; ξV = CC(C)C(N)C(=O)O; Sar = CNCC(=O)O

Experiments:
[1] = test system: NCI-H292 xenograft; test: Example 9.5: in vivo efficacy in NCI-H292 xenograft in Balb/c nude mice; design: species or system Mus Musculus
[2] = test system: MDA-MB-468 xenograft; test: Example 9.8: in vivo efficacy of BCY8245, BCY8781 and BCY8245 with BCY8234 in MDA-MB-468 xenograft in Balb/c nude mice; design: species or system Mus Musculus; details: for tumor relapse (in words): following monitoring schedule
[3] = BCY8245 (BT8009) at 3 mg/kg
Description: At various timepoints, animals were euthanized and plasma and tumour taken and snap frozen. Samples were analysed for MMAE.

[4] = test system: MDA-MB-468 cell line; test: Example 11: HCS assay, Nectin-4 BDC binding study; type: cell-based
Description: HCS assay was used in Nectin-4 BDC binding study. Cells were incubated with test agent and then washed. Detection was by a fluorescent antibody to MMAE.

[5] = test system: NCI-H526 xenograft; test: Example 9.6: in vivo efficacy in NCI-H526 xenograft in Balb/c nude mice; details: for Tumor volume: iv
Description: The major endpoint was to see if the tumor growth could be delayed or mice could be cured. Tumor volume was measured three times weekly in two dimensions using a caliper, and the volume was expressed in mm^3 using the formula: V=0.5 a×b^2 where a and b are the long and short diameters of the tumor, respectively. The tumor size was then used for calculations of T/C value. The T/C value (in percent) is an indication of antitumor effectiveness; T and C are the mean volumes of the treated and control groups, respectively, on a given day. TGI was calculated for each group using the formula: TGI (%)=[1−(Ti−T0)/(Vi−V0)]×100; Ti is the average tumor volume of a treatment group on a given day, T0 is the average tumor volume of the treatment group on the day of treatment start, Vi is the average tumor volume of the vehicle control group on the same day with Ti, and V0 is the average tumor volume of the vehicle group on the day of treatment start.
A one-way ANOVA was performed to compare tumor volume among groups, and when a significant F-statistics (a ratio of treatment variance to the error variance) was obtained, comparisons between groups were carried out with Games-Howell test. All data were analyzed using GraphPad Prism 5.0. P<0.05 was considered to be statistically significant.
• Species: Mus Musculus • Strain: Balb/c nude • Age: 6-8 weeks • Sex: female • Body weight: 18-22 g • Number of animals: 21 mice plus spare 3.1.2.
The NCI-H526 cells were maintained in medium supplemented with 10% heat inactivated fetal bovine serum at 37° C. in an atmosphere of 5% CO2 in air. The tumor cells were routinely subcultured twice weekly. The cells growing in an exponential growth phase were harvested and counted for tumor inoculation.
Each mouse was inoculated subcutaneously at the right flank with NCI-H526 tumor cells (5.0×10^6 in 0.2 ml of PBS for tumor development. 21 animals were randomized when the average tumor volume reached 181 mm^3. The test article administration and the animal numbers in each group were shown in the experimental design table.
Tumor growth inhibition rate for test articles in the NCI-H526 xenograft model was calculated based on tumor volume measurements at day 14 after the start of the treatment.

[6] = 5 mpk, qw, day 0 after the start of treatment
[7] = 1 mg/kg qw and 3 mg/kg qw in combination with BCY8234 300 mg/kg qw, day 21

Question: For CC[C@H](C)C(C(CC(=O)N1CCC[C@H]1[C@H](OC)[C@@H](C)C(=O)NC(C)[C@@H](O)c1ccccc1)OC)N(C)C(=O)[C@@H](NC(=O)C(C(C)C)N(C)C(=O)OCc1ccc(NC(=O)[C@H](CCCNC(N)=O)NC(=O)C(NC(=O)CCCC(=O)NCCC(=O)N(C)CC(=O)N(C)CC(=O)N(C)CC(=O)N(C)CC(=O)N(C)CC(=O)N(C)CC(=O)N(C)CC(=O)N(C)CC(=O)N(C)CC(=O)N(C)CC(=O)N[C@H]2CSCCC(=O)N3CN4CN(C3)C(=O)CCSC[C@H](NC(=O)[C@@H](CC(=O)O)NC(=O)[C@H](Cc3cccc5ccccc35)NC(=O)[C@@H]3CCCN3C2=O)C(=O)N[C@@H](CCSC)C(=O)N[C@@H](CCCCNC(=N)N)C(=O)N[C@@H](CC(=O)O)C(=O)N[C@@H](Cc2c[nH]c3ccccc23)C(=O)N[C@@H](CO)C(=O)N[C@@H]([C@@H](C)O)C(=O)N2CCC[C@H]2C(=O)N2C[C@H](O)C[C@H]2C(=O)N[C@@H](Cc2c[nH]c3ccccc23)C(=O)N[C@H](C(N)=O)CSCCC4=O)C(C)C)cc1)C(C)C (stereo partly drawn) [BCY8245, MMAE-PABC-Cit-Val-Glutaryl-BCY8234] (I: [Sar][Sar][Sar][Sar][Sar][Sar][Sar][Sar][Sar][Sar]CP[1Nal][dD]CM[hArg]DWSTP[Hyp]WC-NH2 / II: [ξV][Cit][PABC][ξNMeV]V[X1][Dolaproine]-X2; linker I:11-I:15-I:25 via TATA; linker I:N-II:N via X3), which TGI ([1]; 3 mpk, qw, day 14) is on record?
Answer: 101.4%

Question: What about the “Tumor Volume (Mean ± SEM)” value ([1]; 3 mpk, qw, day 14) of the same molecule?
Answer: 149 ± 43 mm^3

Question: What about the Tumor volume ([1]; 3 mpk, qw, day 14) of the same molecule?
Answer: 149 mm^3

Question: What about the Tumor volume [1, 6] of the same molecule?
Answer: 160 mm^3

Question: What about the Tumor volume ([1]; 5 mpk, qw, day 2) of the same molecule?
Answer: 176 mm^3

Question: And the Tumor volume ([1]; 5 mpk, qw, day 4)?
Answer: 191 mm^3

Question: What about the Tumor volume ([1]; 5 mpk, qw, day 7) of the same molecule?
Answer: 105 mm^3

Question: What about the Tumor volume ([1]; 5 mpk, qw, day 9) of the same molecule?
Answer: 82 mm^3

Question: And the Tumor volume ([1]; 5 mpk, qw, day 11)?
Answer: 91 mm^3

Question: And the T/C ([1]; 5 mpk, qw, day 14)?
Answer: 8.8%

Question: What about the TGI ([1]; 5 mpk, qw, day 14) of the same molecule?
Answer: 109.8%

Question: And the “Tumor Volume (Mean ± SEM)” value ([1]; 5 mpk, qw, day 14)?
Answer: 83 ± 8 mm^3

Question: What about the Tumor volume ([1]; 5 mpk, qw, day 14) of the same molecule?
Answer: 83 mm^3

Question: And the “tumor response (in words)” value ([1]; mouse, in vivo)?
Answer: causes regression of the tumor

Question: And the “anti-tumor activity (in words)” value ([2]; 0.3 mg/kg qw or biw)?
Answer: did not show any anti-tumor activity

Question: What about the TGI [2, 7] of the same molecule?
Answer: 75.4%

Question: And the “Tumor volume (TV)” value [2, 7]?
Answer: 242 mm^3

Question: And the TGI ([2]; 1 mg/kg qw, day 21)?
Answer: 92.1%

Question: What about the “Tumor volume (TV)” value ([2]; 1 mg/kg qw, day 21) of the same molecule?
Answer: 204 mm^3

Question: What about the “tumor relapse (in words)” value ([2]; 1 mg/kg qw) of the same molecule?
Answer: obvious tumor relapse

Question: What about the TGI ([2]; 3 mg/kg qw, day 21) of the same molecule?
Answer: 164.9%

Question: What about the “Tumor volume (TV)” value ([2]; 3 mg/kg qw, day 21) of the same molecule?
Answer: 27 mm^3

Question: And the “tumor relapse (in words)” value ([2]; 3 mg/kg qw)?
Answer: didn't show any tumor relapse

Question: And the “anti-tumor activity at 3 mg/kg in presence of BCY8234 at 300 mg/kg versus alone (in words)” value ([2]; 3 mg/kg with BCY8234 300 mg/kg)?
Answer: antagonized by BCY8234

Question: And the T/C ([2]; 0.3 mpk, qw)?
Answer: 71.4%

Question: And the TGI ([2]; 0.3 mpk, qw)?
Answer: 52.7%

Question: And the T/C ([2]; 1 mpk, qw)?
Answer: 48.6%

Question: And the TGI ([2]; 1 mpk, qw)?
Answer: 92.1%

Question: What about the T/C ([2]; 3 mpk, qw) of the same molecule?
Answer: 6.5%

Question: What about the TGI ([2]; 3 mpk, qw) of the same molecule?
Answer: 164.9%

Question: And the “tumor response (in words)” value ([2]; former vehicle group, single dose of 5 mg/kg on day 32)?
Answer: obvious tumor regression

Question: What about the “retention of MMAE in tumour versus plasma (in words)” value [3] of the same molecule?
Answer: retained in the tumour longer than in plasma

Question: What about the “Bmax (in words)” value [4] of the same molecule?
Answer: lower than for the Nectin-4 ADC

Question: What about the “binding affinity on MDA-MB-468 cell line (in words)” value [4] of the same molecule?
Answer: single digit nanomolar affinity

Question: What about the Max fluorescent intensity ([4]; MDA-MB-468 cell line, fluorescent antibody to MMAE) of the same molecule?
Answer: 13.34

Question: And the Kd ([4]; MDA-MB-468 cell line, historical data, read-out: Historical Kd)?
Answer: 5.18 nM

Question: What about the Kd ([4]; MDA-MB-468 cell line, read-out: Kd) of the same molecule?
Answer: 3.52 nM

Question: And the “retention on the cells (in words)” value ([4]; detection by a fluorescent antibody to MMAE)?
Answer: retained on the cells

Question: What about the TGI ([5]; 3 mg/kg biw, day 14) of the same molecule?
Answer: 21.6%

Question: And the “Tumor volume (TV)” value ([5]; 3 mg/kg biw, day 14)?
Answer: 1109 mm^3

Question: What about the TGI ([5]; 3 mg/kg qw, day 14) of the same molecule?
Answer: 13.4%

Question: What about the “Tumor volume (TV)” value ([5]; 3 mg/kg qw, day 14) of the same molecule?
Answer: 1205 mm^3

Question: What about the animal bodyweight loss ([5]; 5 mg/kg biw) of the same molecule?
Answer: over 10%

Question: What about the TGI ([5]; 5 mg/kg qw, day 14) of the same molecule?
Answer: 75.0%

Question: And the “Tumor volume (TV)” value ([5]; 5 mg/kg qw, day 14)?
Answer: 476 mm^3

Question: What about the Tumor volume ([5]; 3 mpk, biw, day 0 after the start of treatment) of the same molecule?
Answer: 182 mm^3

Question: And the Tumor volume ([5]; 3 mpk, biw, day 2)?
Answer: 232 mm^3

Question: What about the Tumor volume ([5]; 3 mpk, biw, day 4) of the same molecule?
Answer: 308 mm^3

Question: And the Tumor volume ([5]; 3 mpk, biw, day 7)?
Answer: 440 mm^3

Question: And the Tumor volume ([5]; 3 mpk, biw, day 9)?
Answer: 530 mm^3

Question: What about the Tumor volume ([5]; 3 mpk, biw, day 12) of the same molecule?
Answer: 810 mm^3

Question: What about the Tumor volume ([5]; 3 mpk, biw, day 14) of the same molecule?
Answer: 1109 mm^3

Question: What about the T/C ([5]; 3 mpk, biw, day 14) of the same molecule?
Answer: 81.3%

Question: And the TGI ([5]; 3 mpk, biw, day 14)?
Answer: 21.6%

Question: And the “Tumor Volume (Mean ± SEM)” value ([5]; 3 mpk, biw, day 14)?
Answer: 1109 ± 250 mm^3

Question: What about the Tumor volume ([5]; 3 mpk, qw, day 0 after the start of treatment) of the same molecule?
Answer: 180 mm^3

Question: And the Tumor volume ([5]; 3 mpk, qw, day 2)?
Answer: 256 mm^3

Question: And the Tumor volume ([5]; 3 mpk, qw, day 4)?
Answer: 403 mm^3

Question: What about the Tumor volume ([5]; 3 mpk, qw, day 7) of the same molecule?
Answer: 545 mm^3

Question: What about the Tumor volume ([5]; 3 mpk, qw, day 9) of the same molecule?
Answer: 657 mm^3

Question: And the Tumor volume ([5]; 3 mpk, qw, day 12)?
Answer: 1019 mm^3

Question: What about the Tumor volume ([5]; 3 mpk, qw, day 14) of the same molecule?
Answer: 1205 mm^3

Question: What about the T/C ([5]; 3 mpk, qw, day 14) of the same molecule?
Answer: 88.3%

Question: And the TGI ([5]; 3 mpk, qw, day 14)?
Answer: 13.4%

Question: What about the “Tumor Volume (Mean ± SEM)” value ([5]; 3 mpk, qw, day 14) of the same molecule?
Answer: 1205 ± 79 mm^3

Question: And the Tumor volume [5, 6]?
Answer: 180 mm^3

Question: And the Tumor volume ([5]; 5 mpk, qw, day 2)?
Answer: 209 mm^3

Question: And the Tumor volume ([5]; 5 mpk, qw, day 4)?
Answer: 236 mm^3

Question: And the Tumor volume ([5]; 5 mpk, qw, day 7)?
Answer: 383 mm^3

Question: What about the Tumor volume ([5]; 5 mpk, qw, day 9) of the same molecule?
Answer: 375 mm^3

Question: What about the Tumor volume ([5]; 5 mpk, qw, day 12) of the same molecule?
Answer: 365 mm^3

Question: And the Tumor volume ([5]; 5 mpk, qw, day 14)?
Answer: 476 mm^3

Question: What about the T/C ([5]; 5 mpk, qw, day 14) of the same molecule?
Answer: 34.9%

Question: And the TGI ([5]; 5 mpk, qw, day 14)?
Answer: 75.0%

Question: And the “Tumor Volume (Mean ± SEM)” value ([5]; 5 mpk, qw, day 14)?
Answer: 476 ± 103 mm^3

Question: What about the “tumor response (in words)” value ([5]; mouse, in vivo) of the same molecule?
Answer: tumor growth is restrained by BCY8245 but the tumor does not undergo regression
